Results taken from US20150065717A1, “NIPECOTIC ACID DERIVATIVE AND USE THEREOF FOR MEDICAL PURPOSES” (Toray Industries, Inc., priority 2012, published 2015).

system: rat diabetic nephropathy model; test: Pharmacological effect in rat diabetic nephropathy model (streptozotocin); format: in vivo, rat (spontaneously hypertensive rat); conditions: Day 27 after streptozotocin; orally once per day for 20 days from Day 8 (Example Compound 1 10 mg/kg, imidapril 2 mg/kg); mean±standard error, n=6
Procedure: Example Compound 1 was administered to a rat diabetic nephropathy model (International Journal of Molecular Medicine, 2007, vol. 19, p. 571-579; Hypertension, 1998, vol. 32, p. 778-785), and the therapeutic effect of the nipecotic acid derivative (I) or a pharmaceutically acceptable salt thereof on chronic renal disease with diabetic nephropathy was evaluated.
Rats (spontaneously hypertensive rat, male, 12 or 13 weeks old; Charles River Laboratories Japan, Inc.) with diabetic nephropathy induced by administration of an aqueous streptozotocin (Enzo Life Sciences, Inc.) solution (40 mg/kg) into the tail vein were provided as “group with induced diabetic nephropathy”. On the other hand, rats to which water for injection was similarly administered were provided as “untreated group”.
Six weeks after administration of streptozotocin, urine was collected using a metabolic cage at room temperature for 24 hours. The urinary albumin concentration in the collected urine was measured by the ELISA method. From the urinary albumin concentration and the urine weight, the amount of urinary albumin excretion was calculated.
To rats showing pathological conditions of diabetic nephropathy in the group with induced diabetic nephropathy, Example Compound 1 (10 mg/kg) or a positive control compound imidapril (2 mg/kg) was orally administered once per day for 20 days from Day 8 after the administration of streptozotocin. […]
After the last administration of the test substance on Day 27 after administration of streptozotocin, urine was collected using a metabolic cage at room temperature for 24 hours. The urinary albumin concentration in the collected urine was measured by the ELISA method. From the urinary albumin concentration and the urine weight, the amount of urinary albumin excretion was calculated. In addition, on Day 18 after administration of streptozotocin, the systemic systolic pressure was measured by the tail-cuff method. On Day 29 after administration of streptozotocin, blood was collected from the abdominal aorta of each rat, and the plasma glucose concentration was measured. […]

Structure (SMILES) | amount of urinary albumin excretion
CCOC(=O)[C@H](CCc1ccccc1)N[C@@H](C)C(=O)N1C(=O)N(C)C[C@H]1C(=O)O [imidapril, reference compound] | 5.66 ± 0.91 mg/day

target: T1, recombinant human sEH (Homo sapiens, UniProt P34913); test: In vitro evaluation test for sEH inhibitory activity; format: biochemical; conditions: recombinant human sEH 0.026 μg/mL, fluorescent substrate 6.25 μmol/L, room temperature
T1 construct: purchased Cayman
T1 sequence (P34913 1-555): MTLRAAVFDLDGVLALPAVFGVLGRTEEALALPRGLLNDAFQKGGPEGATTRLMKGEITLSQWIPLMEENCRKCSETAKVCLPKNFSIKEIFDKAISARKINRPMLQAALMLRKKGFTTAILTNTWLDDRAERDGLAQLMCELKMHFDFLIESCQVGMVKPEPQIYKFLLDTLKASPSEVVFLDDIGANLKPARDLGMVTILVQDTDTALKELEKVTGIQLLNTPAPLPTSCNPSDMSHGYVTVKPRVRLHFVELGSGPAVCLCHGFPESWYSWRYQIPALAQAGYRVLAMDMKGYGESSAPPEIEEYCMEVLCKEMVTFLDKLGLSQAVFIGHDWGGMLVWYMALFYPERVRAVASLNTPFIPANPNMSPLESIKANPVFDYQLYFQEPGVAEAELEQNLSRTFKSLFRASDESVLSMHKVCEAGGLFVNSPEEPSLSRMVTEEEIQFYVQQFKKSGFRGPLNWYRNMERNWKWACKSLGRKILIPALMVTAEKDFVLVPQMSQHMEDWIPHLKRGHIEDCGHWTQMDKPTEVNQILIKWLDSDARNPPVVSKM
Procedure: According to the method described in a known document (Analytical Biochemistry, 2005, vol. 343, p. 66-75), the sEH inhibitory activity of each nipecotic acid derivative (I) or a pharmaceutically acceptable salt thereof was evaluated using human sEH.
A recombinant human sEH (final concentration, 0.026 μg/mL; Cayman) was incubated with each test compound in 25 mM Bis-Tris-HCl buffer (pH 7.0) supplemented with 0.1 mg/mL BSA at room temperature for 30 minutes. Thereafter, cyano(6-methoxynaphthalen-2-yl)methyl 2-(3-phenyloxiran-2-yl)acetate (final concentration, 6.25 μmol/L; Cayman) was added thereto as a fluorescent substrate, and the resulting mixture was incubated at room temperature for 20 minutes. The reaction was then stopped by addition of ZnSO4 (final concentration, 0.2 mol/L), and the fluorescence intensity was measured (Fusion α (Packard); Excitation: 330 nm, Emission:485 nm).
The fluorescence intensity observed with addition of neither sEH nor a test compound was regarded as the sEH enzymatic reaction rate of 0%, and the fluorescence intensity observed with addition of sEH but without addition of a test compound was regarded as the sEH enzymatic reaction rate of 100%. From the obtained fluorescence intensity, the sEH enzymatic reaction rate of each test compound was calculated to determine IC50.

Structure (SMILES) | IC50
CC(C)(O)[C@@H](NS(C)(=O)=O)C(=O)N1CCC[C@@H](C(=O)NCc2ccc(Cl)cc2Cl)C1 [Example Compound 41, (R)—N-(2,4-dichlorobenzyl)-1-((R)-3-hydroxy-3-methyl-2-(methylsulfonamido)butanoyl)piperidine-3-carboxamide] | 1.1 nM
CCC(=O)N[C@@H](C(=O)N1CCC[C@@H](C(=O)NCc2ccc(Cl)cc2Cl)C1)C(C)(C)O [Example Compound 40, (R)—N-(2,4-dichlorobenzyl)-1-((R)-3-hydroxy-3-methyl-2-propionamidobutanoyl)piperidine-3-carboxamide] | 0.7 nM
O=C(Nc1ccc(C(F)(F)F)cn1)[C@@H]1CCCN(C(=O)C2(O)CCCCC2)C1 [Comparative Example Compound 1, (R)-1-(1-hydroxycyclohexanecarbonyl)-N-(5-(trifluoromethyl)pyridin-2-yl)piperidine-3-carboxamide, reference compound] | > 20 nM
CS(=O)(=O)NC1(C(=O)N2CCC[C@@H](C(=O)NCc3ccc(C(N)=O)cc3OC(F)(F)F)C2)CC1 [Example Compound 15] | 1.9 nM
CC(C)(NS(C)(=O)=O)C(=O)N1CCC[C@@H](C(=O)NCc2ccc(Cl)cc2OCC(F)(F)F)C1 [Example Compound 10, (R)—N-(4-chloro-2-(2,2,2-trifluoroethoxy)benzyl)-1-(2-methyl-2-(methylsulfonamido)propanoyl)piperidine-3-carboxamide] | 2.6 nM
CS(=O)(=O)NC1(C(=O)N2CCC[C@@H](C(=O)NCc3ccc(C#N)cc3OC(F)(F)F)C2)CCOCC1 [Example Compound 28, (R)—N-(4-cyano-2-(trifluoromethoxy)benzyl)-1-(4-(methylsulfonamido)tetrahydro-2H-pyran-4-carbonyl)piperidine-3-carboxamide] | 2.3 nM
CS(=O)(=O)NC1(C(=O)N2CCC[C@@H](C(=O)NCc3ccc(C#N)cc3OC(F)(F)F)C2)CC1 [Example Compound 3, (R)—N-(4-cyano-2-(trifluoromethoxy)benzyl)-1-(1-(methylsulfonamido)cyclopropanecarbonyl)piperidine-3-carboxamide] | 3.5 nM
CC[C@@H](O)C(=O)N1CCC[C@@H](C(=O)NCc2ccc(C#N)cc2OC(F)(F)F)C1 [Example Compound 43, (R)—N-(4-cyano-2-(trifluoromethoxy)benzyl)-1-((R)-2-hydroxybutanoyl)piperidine-3-carboxamide] | 1.2 nM
CCCC(=O)NC1(C(=O)N2CCC[C@@H](C(=O)NCc3ccc(C#N)cc3OC(F)(F)F)C2)CCC1 [Example Compound 33, (R)-1-(1-butylamidocyclobutanecarbonyl)-N-(4-cyano-2-(trifluoromethoxy)benzyl)piperidine-3-carboxamide] | 2.4 nM
CC(=O)NC1(C(=O)N2CCC[C@@H](C(=O)NCc3ccc(C#N)cc3OC(F)(F)F)C2)CCC1 [Example Compound 9, (R)-1-(1-acetamidocyclobutanecarbonyl)-N-(4-cyano-2-(trifluoromethoxy)benzyl)piperidine-3-carboxamide] | 6.1 nM
CC(C)[C@@H](NS(C)(=O)=O)C(=O)N1CCC[C@@H](C(=O)NCc2ccc(C#N)cc2OC(F)(F)F)C1 [Example Compound 12, (R)—N-(4-cyano-2-(trifluoromethoxy)benzyl)-1-((R)-3-methyl-2-(methylsulfonamido)butanoyl)piperidine-3-carboxamide] | 0.3 nM
CN(C1(C(=O)N2CCC[C@@H](C(=O)NCc3ccc(C#N)cc3OC(F)(F)F)C2)CC1)S(C)(=O)=O [Example Compound 18, (R)—N-(4-cyano-2-(trifluoromethoxy)benzyl)-1-(1-(N-methylmethylsulfonamido)cyclopropanecarbonyl)piperidine-3-carboxamide] | 1.6 nM
CC(C)(C(=O)N1CCC[C@@H](C(=O)NCc2ccc(C#N)cc2OC(F)(F)F)C1)n1cncn1 [Example Compound 36, (R)—N-(4-cyano-2-(trifluoromethoxy)benzyl)-1-(2-methyl-2-(1H-1,2,4-triazol-1-yl)propanoyl)piperidine-3-carboxamide] | 1.5 nM
CC[C@@H](NS(C)(=O)=O)C(=O)N1CCC[C@@H](C(=O)NCc2ccc(C#N)cc2OC(F)(F)F)C1 [Example Compound 22, (R)—N-(4-cyano-2-(trifluoromethoxy)benzyl)-1-((R)-2-(methylsulfonamido)butanoyl)piperidine-3-carboxamide] | 0.5 nM
N#Cc1ccc(CNC(=O)[C@@H]2CCCN(C(=O)C3(C(F)(F)F)CC3)C2)c(OC(F)(F)F)c1 [Example Compound 4, (R)—N-(4-cyano-2-(trifluoromethoxy)benzyl)-1-(1-(trifluoromethyl)cyclopropanecarbonyl)piperidine-3-carboxamide] | 1 nM
CC(=O)NC1(C(=O)N2CCC[C@@H](C(=O)NCc3ccc(C#N)cc3OC(F)(F)F)C2)CCCC1 [Example Compound 8, (R)-1-(1-acetamidocyclopentanecarbonyl)-N-(4-cyano-2-(trifluoromethoxy)benzyl)piperidine-3-carboxamide] | 1.7 nM
